ChEMBL document CHEMBL1287771, “Novel hybrids of 15-membered 8a- and 9a-azahomoerythromycin A ketolides and quinolones as potent antibacterials” (2010)
Values after ≈ are worked out from the molar mass of the structure shown.

Tests used:
Assay type in all cases: functional
Streptococcus pneumoniae [1] = test: Antibacterial activity against constitutive macrolide-lincosamide-streptogramin B-resistant Streptococcus pneumoniae B0627 by agar microdilution method
Streptococcus pyogenes [2] = test: Antibacterial activity against erythromycin A-susceptible Streptococcus pyogenes B0542 by agar microdilution method
Haemophilus influenzae = test: Antibacterial activity against Haemophilus influenzae B0529 by agar microdilution method
Streptococcus pneumoniae [3] = test: Antibacterial activity against erythromycin A-susceptible Streptococcus pneumoniae B0541 by agar microdilution method
Staphylococcus aureus [4] = test: Antibacterial activity against inducible macrolide-lincosamide-streptogramin B-resistant Staphylococcus aureus B0538 by agar microdilution method
Moraxella catarrhalis = test: Antibacterial activity against Moraxella catarrhalis B0324 by agar microdilution method
Staphylococcus aureus [5] = test: Antibacterial activity against constitutive macrolide-lincosamide-streptogramin B-resistant Staphylococcus aureus B0330 by agar microdilution method
Streptococcus pyogenes [6] = test: Antibacterial activity against constitutive macrolide-lincosamide-streptogramin B-resistant Streptococcus pyogenes B0544 by agar microdilution method
Streptococcus pyogenes [7] = test: Antibacterial activity against inducible macrolide-lincosamide-streptogramin B-resistant Streptococcus pyogenes B0543 by agar microdilution method
Staphylococcus aureus [8] = test: Antibacterial activity against erythromycin A-susceptible Staphylococcus aureus B0329 by agar microdilution method
Streptococcus pneumoniae [9] = test: Antibacterial activity against efflux-resistant Streptococcus pneumoniae B0326 by agar microdilution method
Staphylococcus aureus [10] = test: Antibacterial activity against efflux-resistant Staphylococcus aureus B0331 by agar microdilution method
Streptococcus pyogenes [11] = test: Antibacterial activity against efflux-resistant Streptococcus pyogenes B0545 by agar microdilution method

Compound	MIC (Streptococcus pneumoniae [1]) [µg/mL]	MIC (Streptococcus pyogenes [2]) [µg/mL]	MIC (Haemophilus influenzae) [µg/mL]	MIC (Streptococcus pneumoniae [3]) [µg/mL]	MIC (Staphylococcus aureus [4]) [µg/mL]	MIC (Moraxella catarrhalis) [µg/mL]	MIC (Staphylococcus aureus [5]) [µg/mL]	MIC (Streptococcus pyogenes [6]) [µg/mL]	MIC (Streptococcus pyogenes [7]) [µg/mL]	MIC (Staphylococcus aureus [8]) [µg/mL]	MIC (Streptococcus pneumoniae [9]) [µg/mL]	MIC (Staphylococcus aureus [10]) [µg/mL]	MIC (Streptococcus pyogenes [11]) [µg/mL]
CC[C@H]1OC(=O)[C@H](C)C(=O)[C@H](C)[C@@H](O[C@@H]2O[C@H](C)C[C@H](N(C)C)[C@H]2O)[C@](C)(OC[C@H](O)CN2CCN(c3ccc4c(c3F)c(=O)c(C(=O)O)cn4C3CC3)CC2)C[C@@H](C)NC(=O)[C@H](C)[C@H](O)[C@@]1(C)O	0.5 (≈ 0.512 µM)	≤ 0.125	0.25 (≈ 0.256 µM)	≤ 0.125	0.25 (≈ 0.256 µM)	0.5 (≈ 0.512 µM)	8 (≈ 8.2 µM)	4 (≈ 4.1 µM)	0.5 (≈ 0.512 µM)	≤ 0.125	0.25 (≈ 0.256 µM)	0.5 (≈ 0.512 µM)	0.5 (≈ 0.512 µM)
CC[C@H]1OC(=O)[C@H](C)C(=O)[C@H](C)[C@@H](O[C@H]2C[C@H](O)[C@@H](N(C)C)[C@@H](C)O2)[C@](C)(OC/C=C/c2cnc3ccccc3c2)C[C@@H](C)/C(=N\O)[C@H](C)[C@@H](O)[C@]1(C)O	4 (≈ 5.29 µM)	≤ 0.125	8 (≈ 10.6 µM)	≤ 0.125	≤ 0.125	4 (≈ 5.29 µM)	> 64	32 (≈ 42.3 µM)	≤ 0.125	≤ 0.125	≤ 0.125	0.5 (≈ 0.661 µM)	≤ 0.125
CC[C@H]1OC(=O)[C@H](C)C(=O)[C@H](C)[C@@H](O[C@@H]2O[C@H](C)C[C@H](N(C)C)[C@H]2O)[C@](C)(OCC(O)CN2CCN(c3cc4c(=O)c(C(=O)O)cn(C5CC5)c4cc3Cl)CC2)C[C@@H](C)NC(=O)[C@H](C)[C@H](O)[C@@]1(C)O (stereo partly specified)	1 (≈ 1.01 µM)	≤ 0.125	1 (≈ 1.01 µM)	≤ 0.125	1 (≈ 1.01 µM)	≤ 0.125	> 64	4 (≈ 4.03 µM)	1 (≈ 1.01 µM)	1 (≈ 1.01 µM)	0.25 (≈ 0.252 µM)	0.25 (≈ 0.252 µM)	0.5 (≈ 0.504 µM)
CC[C@H]1OC(=O)[C@H](C)C(=O)[C@H](C)[C@@H](O[C@@H]2O[C@H](C)C[C@H](N(C)C)[C@H]2O)[C@](C)(OCC(O)CN2CCN(c3ccc4c(c3F)c(=O)c(C(=O)OC)cn4C3CC3)CC2)C[C@@H](C)NC(=O)[C@H](C)[C@H](O)[C@@]1(C)O (stereo partly specified)	> 64	0.125 (≈ 0.126 µM)	4 (≈ 4.04 µM)	0.125 (≈ 0.126 µM)	> 64	0.5 (≈ 0.505 µM)	> 64	> 64	> 64	4 (≈ 4.04 µM)	0.25 (≈ 0.252 µM)	32 (≈ 32.3 µM)	16 (≈ 16.2 µM)
CC[C@H]1OC(=O)[C@H](C)C(=O)[C@H](C)[C@@H](O[C@@H]2O[C@H](C)C[C@H](N(C)C)[C@H]2O)[C@](C)(OCC(O)CNCC(C)C)C[C@@H](C)NC(=O)[C@H](C)[C@H](O)[C@@]1(C)O (stereo partly specified)	> 64	8 (≈ 11.1 µM)	> 64	16 (≈ 22.3 µM)	64 (≈ 89.1 µM)	16 (≈ 22.3 µM)	> 64	> 64	64 (≈ 89.1 µM)	64 (≈ 89.1 µM)	64 (≈ 89.1 µM)	64 (≈ 89.1 µM)	8 (≈ 11.1 µM)
CC[C@H]1OC(=O)[C@H](C)C(=O)[C@H](C)[C@@H](O[C@@H]2O[C@H](C)C[C@H](N(C)C)[C@H]2O)[C@](C)(OC/C=C/c2cnc3ccccc3c2)C[C@@H](C)NC(=O)[C@H](C)[C@H](O)[C@@]1(C)O	16 (≈ 21.2 µM)	≤ 0.125	4 (≈ 5.29 µM)	≤ 0.125	0.5 (≈ 0.661 µM)	0.25 (≈ 0.331 µM)	> 64	8 (≈ 10.6 µM)	1 (≈ 1.32 µM)	1 (≈ 1.32 µM)	0.5 (≈ 0.661 µM)	0.5 (≈ 0.661 µM)	1 (≈ 1.32 µM)
CC[C@H]1OC(=O)[C@H](C)[C@@H](O[C@@H]2C[C@@](C)(OC)[C@@H](O)[C@H](C)O2)[C@H](C)[C@@H](O[C@@H]2O[C@H](C)C[C@H](N(C)C)[C@H]2O)[C@](C)(OC/C=C/N[C@H](C)Cc2ccc([N+](=O)[O-])cc2)C[C@@H](C)NC(=O)[C@H](C)[C@H](O)[C@@]1(C)O	> 64	≤ 0.125	16 (≈ 16.5 µM)	≤ 0.125	> 64	2 (≈ 2.07 µM)	> 64	> 64	8 (≈ 8.27 µM)	0.5 (≈ 0.517 µM)	64 (≈ 66.2 µM)	64 (≈ 66.2 µM)	32 (≈ 33.1 µM)
CC[C@H]1OC(=O)[C@H](C)C(=O)[C@H](C)[C@@H](O[C@@H]2O[C@H](C)C[C@H](N(C)C)[C@H]2O)[C@](C)(OCC(O)CNc2ccc3ncccc3c2)C[C@@H](C)NC(=O)[C@H](C)[C@H](O)[C@@]1(C)O (stereo partly specified)	8 (≈ 10.1 µM)	≤ 0.125	≤ 0.125	≤ 0.125	2 (≈ 2.53 µM)	0.5 (≈ 0.634 µM)	64 (≈ 81.1 µM)	16 (≈ 20.3 µM)	4 (≈ 5.07 µM)	2 (≈ 2.53 µM)	2 (≈ 2.53 µM)	1 (≈ 1.27 µM)	8 (≈ 10.1 µM)
CC[C@H]1OC(=O)[C@H](C)C(=O)[C@H](C)[C@@H](O[C@@H]2O[C@H](C)C[C@H](N(C)C)[C@H]2O)[C@](C)(OCC(O)CN(C)CCc2ccc([N+](=O)[O-])cc2)C[C@@H](C)NC(=O)[C@H](C)[C@H](O)[C@@]1(C)O (stereo partly specified)	≤ 0.125	≤ 0.125	1 (≈ 1.21 µM)	≤ 0.125	0.5 (≈ 0.606 µM)	≤ 0.125	> 64	1 (≈ 1.21 µM)	0.25 (≈ 0.303 µM)	≤ 0.125	0.5 (≈ 0.606 µM)	1 (≈ 1.21 µM)	0.25 (≈ 0.303 µM)
CC[C@H]1OC(=O)[C@H](C)C(=O)[C@H](C)[C@@H](O[C@@H]2O[C@H](C)C[C@H](N(C)C)[C@H]2O)[C@](C)(OCC(O)CNCCNc2cc3c(=O)c(C(=O)O)cn(C4CC4)c3cc2Cl)C[C@@H](C)NC(=O)[C@H](C)[C@H](O)[C@@]1(C)O (stereo partly specified)	4 (≈ 4.14 µM)	≤ 0.125	8 (≈ 8.28 µM)	≤ 0.125	2 (≈ 2.07 µM)	4 (≈ 4.14 µM)	> 64	32 (≈ 33.1 µM)	4 (≈ 4.14 µM)	1 (≈ 1.03 µM)	1 (≈ 1.03 µM)	0.5 (≈ 0.517 µM)	4 (≈ 4.14 µM)
CC[C@H]1OC(=O)[C@H](C)C(=O)[C@H](C)[C@@H](O[C@@H]2O[C@H](C)C[C@H](N(C)C)[C@H]2O)[C@](C)(OCCCC2CNc3ccccc3C2)C[C@@H](C)NC(=O)[C@H](C)[C@H](O)[C@@]1(C)O (stereo partly specified)	64 (≈ 84 µM)	≤ 0.125	16 (≈ 21 µM)	≤ 0.125	> 64	1 (≈ 1.31 µM)	64 (≈ 84 µM)	> 64	16 (≈ 21 µM)	2 (≈ 2.62 µM)	8 (≈ 10.5 µM)	64 (≈ 84 µM)	8 (≈ 10.5 µM)
O=C(O)c1cn(C2CC2)c2cc(N3CCNCC3)c(F)cc2c1=O [CIPROFLOXACIN]	0.25 (≈ 0.754 µM)	2 (≈ 6.04 µM)	≤ 0.125	≤ 0.125		0.125 (≈ 0.377 µM)	≤ 0.125	0.5 (≈ 1.51 µM)	0.25 (≈ 0.754 µM)		0.25 (≈ 0.754 µM)	≤ 0.125	≤ 0.125
CC[C@H]1OC(=O)[C@H](C)[C@@H](O[C@H]2C[C@@](C)(OC)[C@@H](O)[C@H](C)O2)[C@H](C)[C@@H](O[C@@H]2O[C@H](C)C[C@H](N(C)C)[C@H]2O)[C@](C)(O)C[C@@H](C)CN(C)[C@H](C)[C@@H](O)[C@]1(C)O [AZITHROMYCIN]	> 64	≤ 0.125	1 (≈ 1.34 µM)	≤ 0.125	> 64	0.25 (≈ 0.334 µM)	> 64	> 64	8 (≈ 10.7 µM)	1 (≈ 1.34 µM)	4 (≈ 5.34 µM)	> 64	1 (≈ 1.34 µM)
C=CCO[C@]1(C)C[C@@H](C)NC(=O)[C@H](C)[C@H](O)[C@@](C)(O)[C@@H](CC)OC(=O)[C@H](C)C(=O)[C@H](C)[C@H]1O[C@@H]1O[C@H](C)C[C@H](N(C)C)[C@H]1O	> 64	0.25 (≈ 0.398 µM)	16 (≈ 25.4 µM)	≤ 0.125	2 (≈ 3.18 µM)	≤ 0.125	> 64	> 64	16 (≈ 25.4 µM)	2 (≈ 3.18 µM)	16 (≈ 25.4 µM)	8 (≈ 12.7 µM)	8 (≈ 12.7 µM)
CC[C@H]1OC(=O)[C@H](C)C(=O)[C@H](C)[C@@H](O[C@@H]2O[C@H](C)C[C@H](N(C)C)[C@H]2O)[C@](C)(OC[C@@H](O)CN2CCN(c3ccc4c(c3F)c(=O)c(C(=O)O)cn4C3CC3)CC2)C[C@@H](C)NC(=O)[C@H](C)[C@H](O)[C@@]1(C)O	≤ 0.125	≤ 0.125	≤ 0.125	≤ 0.125	0.25 (≈ 0.256 µM)	≤ 0.125	2 (≈ 2.05 µM)	2 (≈ 2.05 µM)	≤ 0.125	≤ 0.125	≤ 0.125	0.25 (≈ 0.256 µM)	0.5 (≈ 0.512 µM)
CC[C@H]1OC(=O)[C@H](C)C(=O)[C@H](C)[C@@H](O[C@@H]2O[C@H](C)C[C@H](N(C)C)[C@H]2O)[C@](C)(OC/C=C/c2cccc3ccccc23)C[C@@H](C)NC(=O)[C@H](C)[C@H](O)[C@@]1(C)O	> 64	0.25 (≈ 0.331 µM)	8 (≈ 10.6 µM)	≤ 0.125	2 (≈ 2.65 µM)	0.25 (≈ 0.331 µM)	> 64	> 64	4 (≈ 5.3 µM)	1 (≈ 1.32 µM)	2 (≈ 2.65 µM)	4 (≈ 5.3 µM)	2 (≈ 2.65 µM)
